The results in this text go back to US9199962B2, “Substituted azaheterocycles for the treatment of cancer” (Merck Patent GmbH, priority 2011, dated 2015).

By IC50 is commonly meant the concentration at which inhibition is half-maximal.

A value given as a limit tells only on which side of the number the result lay.

T1 sequence (Q05397 376-1052): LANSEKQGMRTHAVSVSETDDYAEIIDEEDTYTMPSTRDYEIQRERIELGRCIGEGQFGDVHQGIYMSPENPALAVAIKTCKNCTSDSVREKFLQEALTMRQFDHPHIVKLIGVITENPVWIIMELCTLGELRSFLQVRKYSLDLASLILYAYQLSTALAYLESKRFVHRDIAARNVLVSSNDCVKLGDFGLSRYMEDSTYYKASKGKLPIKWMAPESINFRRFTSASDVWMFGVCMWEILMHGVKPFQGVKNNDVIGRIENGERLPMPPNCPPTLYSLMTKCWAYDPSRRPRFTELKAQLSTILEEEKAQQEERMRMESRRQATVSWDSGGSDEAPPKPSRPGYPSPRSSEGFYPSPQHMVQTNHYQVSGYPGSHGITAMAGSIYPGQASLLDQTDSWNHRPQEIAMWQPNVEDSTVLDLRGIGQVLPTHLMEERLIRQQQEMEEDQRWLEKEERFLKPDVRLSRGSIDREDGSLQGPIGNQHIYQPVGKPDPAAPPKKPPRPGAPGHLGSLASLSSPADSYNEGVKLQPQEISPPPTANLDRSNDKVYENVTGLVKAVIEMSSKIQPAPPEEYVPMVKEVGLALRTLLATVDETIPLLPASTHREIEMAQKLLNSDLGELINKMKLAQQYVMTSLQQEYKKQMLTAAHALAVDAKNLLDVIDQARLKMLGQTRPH

The first experiment has as its target T1, GST-FAK (N-terminal GST fusion with truncated human FAK (376-1052 (end) amino acids)) (Homo sapiens, UniProt Q05397).
T1 construct: truncated human FAK (376-1052 (end) amino acids)
Description: Biochemical enzyme assay for FAK activity (Caliper LC3000 mobility shift). As to conditions: Table 1; 100 uM ATP; read-out: FAK IC50. Summed up: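 Inhibitor dose series in DMSO were incubated 90 min at 25 °C with truncated GST-tagged human FAK (0.067 ng/µl) and FITC-labelled peptide substrate (1 µM), with ATP at 100 µM and FERM peptide at 1 mM (pH 7.5 HEPES). After EDTA quench, phosphorylated and unphosphorylated peptides were resolved electrophoretically. Percent conversion was fitted for IC50.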
As to `Fc1ccc(Oc2ccc(CNc3ccnc(-c4cncc(C(F)(F)F)c4)n3)cc2)cc1` [Compound 25, [4-(4-Fluoro-phenoxy)-benzyl]-[2-(5-trifluoromethyl-pyridin-3-yl)-pyrimidin-4-yl]-amine], the IC50 is above 10000 nM.

As for `COc1cncc(-c2nccc(NCc3ccc(N4CCOCC4)cc3)n2)c1` [Compound 4, [2-(5-Methoxy-pyridin-3-yl)-pyrimidin-4-yl]-(4-morpholin-4-yl-benzyl)-amine], the IC50 is above 10000 nM. The same measure, in the same setting: the value for `O=C(c1cncc(-c2nccc(NCc3cccc(-n4cccn4)c3)n2)c1)N1CCOCC1` [Compound 34, Morpholin-4-yl-{5-[4-(3-pyrazol-1-yl-benzylamino)-pyrimidin-2-yl]-pyridin-3-yl}-methanone] was above 10000 nM; that for `Fc1cncc(-c2nccc(NCc3cccc(-n4cccn4)c3)n2)c1` [Compound 11, [2-(5-Fluoro-pyridin-3-yl)-pyrimidin-4-yl]-(3-pyrazol-1-yl-benzyl)-amine] was above 10000 nM; that for `CC1(C)Cc2cccc(CNc3ccnc(-c4cncc(F)c4)n3)c2O1` [Compound 8, (2,2-Dimethyl-2,3-dihydro-benzofuran-7-ylmethyl)-[2-(5-fluoro-pyridin-3-yl)-pyrimidin-4-yl]-amine] was above 10000 nM. As to `O=C(c1cncc(-c2nccc(NCc3cccc(Oc4cnccn4)c3)n2)c1)N1CCOCC1` [Compound 23, Morpholin-4-yl-(5-{4-[3-(pyrazin-2-yloxy)-benzylamino]-pyrimidin-2-yl}-pyridin-3-yl)-methanone], the IC50 is above 10000 nM.

The same experiment, now with this note: Table 2; 100 uM ATP; read-out: FAK IC50.
Consider `CNC(=O)[C@H](NC(=O)c1cc(NCc2ccc(F)cc2F)nc(-c2cncc(C(F)(F)F)c2)n1)C(C)C` [Compound 76, 6-(2,4-Difluoro-benzylamino)-2-(5-trifluoromethyl-pyridin-3-yl)-pyrimidine-4-carboxylic acid ((R)-2-methyl-1-methylcarbamoyl-propyl)-amide], for which the IC50 lay within 100 to 1000 nM. The same measure, in the same setting: the value for `CC(Nc1ccnc(-c2cncc(C(F)(F)F)c2)n1)c1ccc(F)cc1` (stereo not drawn) [Compound 68, [1-(4-Fluoro-phenyl)-ethyl]-[2-(5-trifluoromethyl-pyridin-3-yl)-pyrimidin-4-yl]-amine] was 100 to 1000 nM. Same read-out and setting: the value for `OCC(Nc1ccnc(-c2cncc(C(F)(F)F)c2)n1)c1ccccc1` (stereo not drawn) [Compound 67, 2-Phenyl-2-[2-(5-trifluoromethyl-pyridin-3-yl)-pyrimidin-4-ylamino]-ethanol] was 100 to 1000 nM; that for `O=C(NCCN1CCNC1=O)c1cc(NCc2ccc(F)cc2F)nc(-c2cncc(C(F)(F)F)c2)n1` [Compound 75, 6-(2,4-Difluoro-benzylamino)-2-(5-trifluoromethyl-pyridin-3-yl)-pyrimidine-4-carboxylic acid [2-(2-oxo-imidazolidin-1-yl)-ethyl]-amide] was 100 to 1000 nM; that for `O=C(NCCc1cccnc1)c1cc(NCc2ccc(F)cc2F)nc(-c2cncc(C(F)(F)F)c2)n1` [Compound 70, 6-(2,4-Difluoro-benzylamino)-2-(5-trifluoromethyl-pyridin-3-yl)-pyrimidine-4-carboxylic acid (2-pyridin-3-yl-ethyl)-amide] was below 100 nM.

The experiment is the same for the next values; noted with them: Table 3; 100 uM ATP; read-out: FAK IC50.
Turning to `Nc1ncccc1-c1cc(NCc2ccccc2F)ccn1` [Compound 106, N4-(2-Fluorobenzyl)-2,3′-bipyridine-2′,4-diamine], the IC50 was above 10000 nM. Same read-out and setting: the value for `COc1ccc(CNc2ccnc(-c3cccnc3N)n2)cc1` [Compound 97, 2-(2-Aminopyridin-3-yl)-N-(4-methoxybenzyl)pyrimidin-4-amine] was above 10000 nM. The same measure, in the same setting: the value for `CNCC(Nc1ccnc(-c2cccnc2N)n1)c1ccccc1` (stereo not drawn) [Compound 144, N1-[2-(2-Aminopyridin-3-yl)pyrimidin-4-yl]-N2-methyl-1-phenylethane-1,2-diamine] was above 10000 nM. Still for that read-out and setting: the value for `CS(=O)(=O)c1ccc(CNc2ccnc(-c3cccnc3N)n2)cc1` [Compound 99, 2-(2-Aminopyridin-3-yl)-N-[4-(methylsulfonyl)benzyl]pyrimidin-4-amine] was above 10000 nM; that for `Nc1ncccc1-c1nccc(NCc2c(F)cccc2C(F)(F)F)n1` [Compound 111, 2-(2-Aminopyridin-3-yl)-N-[2-fluoro-6-(trifluoromethyl)benzyl]pyrimidin-4-amine] was 1000 to 10000 nM. For `CNC[C@@H](Nc1ccnc(-c2cccnc2N)n1)c1cccc(F)c1` [Compound 145, (S)-N1-[2-(2-Amino-pyridin-3-yl)-pyrimidin-4-yl]-1-(3-fluoro-phenyl)-N2-methyl-ethane-1,2-diamine], the IC50 was above 10000 nM.

Still in this experiment, the particulars now being: Table 4; 100 uM ATP; read-out: IC50 FAK.
With `N#Cc1cncc(-c2nccc(NCc3ccc(F)cc3F)n2)c1` [Compound 180, 5-[4-[(2,4-difluorophenyl)methylamino]pyrimidin-2-yl]pyridine-3-carbonitrile], the IC50 fell in the range of 100 to 1000 nM.

The same experiment, now with this note: Table 5; 100 uM ATP; read-out: FAK IC50.
Consider `COC(=O)c1cc(NCc2ccc(F)cc2F)nc(-c2cncc(C(F)(F)F)c2)n1` [Compound 273, 6-(2,4-Difluoro-benzylamino)-2-(5-trifluoromethyl-pyridin-3-yl)-pyrimidine-4-carboxylic acid methyl ester], for which the IC50 lay in the range of 100 to 1000 nM.

In the case of `N#Cc1cncc(-c2nccc(NCc3ncccc3F)n2)c1` [Compound 213, 5-{4-[(3-Fluoro-pyridin-2-ylmethyl)-amino]-pyrimidin-2-yl}-nicotinonitrile], the IC50 is 1000 to 10000 nM. As for `Fc1ccc(CNc2ccnc(-c3cccnc3F)n2)c(F)c1` [Compound 212, (2,4-Difluoro-benzyl)-[2-(2-fluoro-pyridin-3-yl)-pyrimidin-4-yl]-amine], the IC50 was in the range of 1000 to 10000 nM. Same read-out and setting: the value for `O=C(O)c1cc(NCc2ccc(F)cc2F)nc(-c2cncc(C(F)(F)F)c2)n1` [Compound 272, 6-(2,4-Difluoro-benzylamino)-2-(5-trifluoromethyl-pyridin-3-yl)-pyrimidine-4-carboxylic acid] was 100 to 1000 nM; that for `OC[C@H](Nc1ccnc(-c2cncc(C(F)(F)F)c2)n1)c1ccccc1` [Compound 271, (R)-2-Phenyl-2-[2-(5-trifluoromethyl-pyridin-3-yl)-pyrimidin-4-ylamino]-ethanol] was 100 to 1000 nM. On to `Cc1cc(F)ncc1-c1nccc(NCc2ccc(F)cc2F)n1` [Compound 211, (2,4-Difluoro-benzyl)-[2-(6-fluoro-4-methyl-pyridin-3-yl)-pyrimidin-4-yl]-amine], for which the IC50 was above 10000 nM. Same read-out and setting: for `Fc1ccc(CNc2cc(-c3cncc(C(F)(F)F)c3)nc(-c3cncc(C(F)(F)F)c3)n2)c(F)c1` [Compound 266, [2,6-Bis-(5-trifluoromethyl-pyridin-3-yl)-pyrimidin-4-yl]-(2,4-difluoro-benzyl)-amine] the value was 1000 to 10000 nM. As to `Fc1ccc(CCNc2ccnc(-c3cncc(C(F)(F)F)c3)n2)cc1` [Compound 195, [2-(4-Fluoro-phenyl)-ethyl]-[2-(5-trifluoromethyl-pyridin-3-yl)-pyrimidin-4-yl]-amine], the IC50 was 100 to 1000 nM.

For `FC(F)(F)c1cncc(-c2nccc(Nc3cn[nH]c3)n2)c1` [Compound 239, (1H-Pyrazol-4-yl)-[2-(5-trifluoromethyl-pyridin-3-yl)-pyrimidin-4-yl]-amine], the IC50 lay within 1000 to 10000 nM. On to `Fc1ccc(CNc2ccnc(-c3ccc(F)nc3)n2)c(F)c1` [Compound 217, (2,4-Difluoro-benzyl)-[2-(6-fluoro-pyridin-3-yl)-pyrimidin-4-yl]-amine], for which the IC50 was above 10000 nM. For the molecule `COc1cncc(-c2nccc(NCCc3ccc(F)cc3)n2)c1` [Compound 192, [2-(4-Fluoro-phenyl)-ethyl]-[2-(5-methoxy-pyridin-3-yl)-pyrimidin-4-yl]-amine], the IC50 fell in the range of 1000 to 10000 nM. For `COc1cncc(-c2nccc(NCc3ccccc3-c3ccccc3S(C)(=O)=O)n2)c1` [Compound 193, (2′-Methanesulfonyl-biphenyl-2-ylmethyl)-[2-(5-methoxy-pyridin-3-yl)-pyrimidin-4-yl]-amine], the IC50 is above 10000 nM. Still for that read-out and setting: the value for `COc1cncc(-c2nccc(NCc3ccc4[nH]c(=O)[nH]c4c3)n2)c1` [Compound 216, 5-{[2-(5-Methoxy-pyridin-3-yl)-pyrimidin-4-ylamino]-methyl}-1,3-dihydro-benzoimidazol-2-one] was above 10000 nM; that for `COc1cncc(-c2nccc(NCc3ccc(F)cc3F)n2)c1` [Compound 223, (2,4-Difluoro-benzyl)-[2-(5-methoxy-pyridin-3-yl)-pyrimidin-4-yl]-amine] was below 100 nM; that for `CN(c1ncccc1CNc1ccnc(-c2cncc(C(F)(F)F)c2)n1)S(C)(=O)=O` [Compound 265, N-Methyl-N-(3-{[2-(5-trifluoromethyl-pyridin-3-yl)-pyrimidin-4-ylamino]-methyl}-pyridin-2-yl)-methanesulfonamide] was 1000 to 10000 nM.

For the molecule `CNC(=O)C1(NC(=O)c2cc(NCc3ccc(F)cc3F)nc(-c3cncc(C(F)(F)F)c3)n2)CC1` [Compound 262, 6-(2,4-Difluoro-benzylamino)-2-(5-trifluoromethyl-pyridin-3-yl)-pyrimidine-4-carboxylic acid (1-methylcarbamoyl-cyclopropyl)-amide], the IC50 lay within 100 to 1000 nM. Still for that read-out and setting: for `COc1cncc(-c2nccc(NCc3ncccc3F)n2)c1` [Compound 214, (3-Fluoro-pyridin-2-ylmethyl)-[2-(5-methoxy-pyridin-3-yl)-pyrimidin-4-yl]-amine] the value was 100 to 1000 nM; for `NC(=O)CNC(=O)c1cc(NCc2ncccc2F)nc(-c2cncc(C(F)(F)F)c2)n1` [Compound 190, 6-[(3-Fluoro-pyridin-2-ylmethyl)-amino]-2-(5-trifluoromethyl-pyridin-3-yl)-pyrimidine-4-carboxylic acid carbamoylmethyl-amide], 100 to 1000 nM.
